Patent publication US20210379079A1, “COMPOSITIONS COMPRISING CD20 INHIBITORS AND BISFLUOROALKYL-1,4-BENZODIAZEPINONE COMPOUNDS AND METHODS OF USE THEREOF” (Ayala Pharmaceuticals Inc., priority 2018, published 2021)

Key:
Assay in all cases: Cell surface CD20 levels by flow cytometry (FACS) after GSI treatment
Format in all cases: cell-based
[1] = test system: SP49 cells; settings: for cell surface CD20 levels: SP49 (MCL with Notch4 GOF), 7 days, 0-10000 nM, FIGS. 1A-1B
Description: (§1) The effect of γ-secretase inhibitors (GSIs) on levels of CD20 in lymphoma cell lines was examined (FIG. 1). Cells from five different lymphoma cell lines (SP49 (mantle cell lymphoma (MCL) with Notch4 GOF); Toledo (Diffuse large B-cell lymphoma (DLBCL)); RC (Double Hit DLBCL-MYC, BCL2); SUDHL-4 (DLBCL); and SUDHL-6 (DLBCL)) were treated for 7 days with 0, 1 nM, 10 nM, 100 nM, 500 nM, 1000 nM, and 10000 nM of the following GSIs: Compound 1 (FIG. 1A) or Compound 22 (FIG. 1B). Cell surface CD20 levels were observed by flow cytometry (FACS analysis).
(§2) In a separate experiment, cells from lymphoma cell lines SUDHL-4 (DLBCL); Rec-1 (MCL); and SP49 (MCL) were seeded at 1×10^4 cells/well in a total volume of 250 μl into a 96-well plate. The cells were cultured in RPMI supplemented with 10% FCS.
(§3) Compound 1 or Compound 22 were added to the cell cultures at concentrations of 10, 1, 0.5, 0.1, 0.01, 0.001 μM. Following 7 days of incubation at 37° C., the cells were collected and stained with anti CD20 antibody and cell surface CD20 levels were immediately analyzed by flow cytometry (FACS analysis).

[2] = test system: SUDHL-4 cells; settings: SUDHL-4 (DLBCL); for CD20 levels: separate experiment, 0.001-10 μM, 7 days at 37° C., FIG. 2
Description: as §1, §2, §3

[3] = test system: Rec-1 (MCL); settings: separate experiment, 0.001-10 μM, 7 days at 37° C., FIG. 2
Description: as §2, §3

CN1C(=O)[C@@H](NC(=O)[C@H](CCC(F)(F)F)[C@H](CCC(F)(F)F)C(N)=O)N=C(c2ccccc2)c2ccccc21 [Compound 1, (2R,3S)-N-((3S)-1-methyl-2-oxo-5-phenyl-2,3-dihydro-1H-1,4-benzodiazepin-3-yl)-2,3-bis(3,3,3-trifluoropropyl)succinamide]
cell surface CD20 levels [1]: increased cell surface CD20 levels
CD20 levels ([1]; separate experiment, SP49 (MCL), 0.001-10 μM, 7 days at 37° C., FIG. 2): dose-dependent increase in CD20 levels
cell surface CD20 levels ([2]; 7 days, 0-10000 nM, FIG. 1A): increased cell surface CD20 levels
CD20 levels [2]: dose-dependent increase in CD20 levels
CD20 levels [3]: dose-dependent increase in CD20 levels

Cc1cccc2c1NC(=O)[C@@H](NC(=O)[C@H](CCC(F)(F)F)[C@H](CCC(F)(F)F)C(N)=O)N=C2c1cccc(F)c1 [Compound 22, (2R,3S)-N-((3S)-5-(3-fluorophenyl)-9-methyl-2-oxo-2,3-dihydro-1H-1,4-benzodiazepin-3-yl)-2,3-bis(3,3,3-trifluoropropyl)succinamide]
cell surface CD20 levels [1]: increased cell surface CD20 levels
CD20 levels [2]: dose-dependent increase in CD20 levels
CD20 levels [3]: dose-dependent increase in CD20 levels
